What was measured:
Conditions in all cases: MRS medium, 37° C.; A50, K50, S50 50, C34 34, T15 15, G20 20, R25 25 microgram/ml
[1] = test system: BLB (Lactobacillus brevis); experiment: Antibiotic susceptibility of lactic acid bacteria strains; format: cell-based; further: key: +++: being normally grown without the effect of antibiotic; −: being not grown caused by the effect of antibiotic
Experimental: (§1) In order to determine the antibiotic resistance of the lactic acid bacteria strains reproducing abundant lactic acids, i.e., Lactobacillus acidophilus (KCTC No. 3164), Bifidobacterium longum sub sp. longum (KCTC No. 3128) etc, the bacteria was inoculated into MRS medium (10 g of Protease peptone, 10 g of beef extract, 5 g of yeast extract, 20 g of D-glucose, 1 ml of Tween 80, 2 g of K2HPO4, 5 g of sodium acetate, 2 g of diammonium hydrogencitrate, 0.2 g of MgSO47H20, 0.2 g of MnSO4H20, 1 L of distilled water, pH 6.2-6.5) and performed to shaking incubation at 37° C. at the speed of 150 rpm.

[2] = test system: BBC (Bacillus cereus); experiment: as above; format: cell-based
Experimental: as §1

[3] = test system: BBL (Bifidobacterium longum subsp. Longum); experiment: as above; format: cell-based; further: key: +++: being normally grown without the effect of antibiotic; −: being not grown caused by the effect of antibiotic
Experimental: as §1

[4] = test system: BSS (Streptococcus sp); experiment: as above; format: cell-based; further: key: +++: being normally grown without the effect of antibiotic; −: being not grown caused by the effect of antibiotic
Experimental: as §1

[5] = test system: BBC2 (Bifidobacterium catenulatum); experiment: as above; format: cell-based
Experimental: as §1

[6] = test system: BBA (Bifidobacterium adolescentis); experiment: as above; format: cell-based
Experimental: as §1

[7] = test system: BLD (Lactobacillus delbrueckii subsp. bulgaricus); experiment: as above; format: cell-based
Experimental: as §1

[8] = test system: BLC (Lactobacillus casei); experiment: as above; format: cell-based
Experimental: as §1

[9] = test system: BLA (Lactobacillus acidophilus); experiment: as above; format: cell-based
Experimental: as §1

[10] = test system: BBB1 (Bifidobacterium bifidum); set-up: key to the marks not given beside the values
[11] = test system: BBB2 (Bifidobacterium breve); set-up: key to the marks not given beside the values
Wherever Antibiotic susceptibility (growth of BBC with antibiotic) is given: key: +++: being normally grown without the effect of antibiotic; −: being not grown caused by the effect of antibiotic.

CC1(C)S[C@@H]2[C@H](NC(=O)[C@H](N)c3ccccc3)C(=O)N2[C@H]1C(=O)O [Ampicillin, ampicillin]
−: Antibiotic susceptibility (growth of BLB with antibiotic) [1] | Antibiotic susceptibility (growth of BBC with antibiotic) [2] | Antibiotic susceptibility (growth of BBL with antibiotic) [3] | Antibiotic susceptibility (growth of BSS with antibiotic) [4] | Antibiotic susceptibility (growth of BBC2 with antibiotic) [5] | Antibiotic susceptibility (growth of BBA with antibiotic) [6] | Antibiotic susceptibility (growth of BLD with antibiotic) [7] | Antibiotic susceptibility (growth of BLC with antibiotic) [8]

O=C(N[C@H](CO)[C@H](O)c1ccc([N+](=O)[O-])cc1)C(Cl)Cl [Chloramphenicol, chloramphenicol]
−: Antibiotic susceptibility (growth of BLB with antibiotic) [1] | Antibiotic susceptibility (growth of BBC with antibiotic) [2] | Antibiotic susceptibility (growth of BBL with antibiotic) [3] | Antibiotic susceptibility (growth of BSS with antibiotic) [4] | Antibiotic susceptibility (growth of BBC2 with antibiotic) [5] | Antibiotic susceptibility (growth of BBA with antibiotic) [6] | Antibiotic susceptibility (growth of BLD with antibiotic) [7] | Antibiotic susceptibility (growth of BLC with antibiotic) [8] | Antibiotic susceptibility (growth of BLA with antibiotic) [9]

NC[C@H]1O[C@H](O[C@H]2[C@H](O)[C@@H](O[C@H]3O[C@H](CO)[C@@H](O)[C@H](N)[C@H]3O)[C@H](N)C[C@@H]2N)[C@H](O)[C@@H](O)[C@@H]1O [Kanamycin, kanamycin]
+++: Antibiotic susceptibility (growth of BLB with antibiotic) [1] | Antibiotic susceptibility (growth of BBL with antibiotic) [3] | Antibiotic susceptibility (growth of BSS with antibiotic) [4] | Antibiotic susceptibility (growth of BLD with antibiotic) [7] | Antibiotic susceptibility (growth of BLC with antibiotic) [8] | Antibiotic susceptibility (growth of BLA with antibiotic) [9] | Antibiotic susceptibility (growth of BBB1 with antibiotic) [10] | Antibiotic susceptibility (growth of BBB2 with antibiotic) [11]

CO[C@H]1/C=C/O[C@@]2(C)Oc3c(C)c(O)c4c(O)c(c(/C=N/N5CCN(C)CC5)c(O)c4c3C2=O)NC(=O)/C(C)=C\C=C\[C@H](C)[C@H](O)[C@@H](C)[C@@H](O)[C@@H](C)[C@H](OC(C)=O)[C@@H]1C [Ripampicin, rifampicin]
−: Antibiotic susceptibility (growth of BLB with antibiotic) [1] | Antibiotic susceptibility (growth of BBC with antibiotic) [2] | Antibiotic susceptibility (growth of BBL with antibiotic) [3] | Antibiotic susceptibility (growth of BSS with antibiotic) [4] | Antibiotic susceptibility (growth of BBC2 with antibiotic) [5] | Antibiotic susceptibility (growth of BBA with antibiotic) [6] | Antibiotic susceptibility (growth of BLD with antibiotic) [7] | Antibiotic susceptibility (growth of BLC with antibiotic) [8] | Antibiotic susceptibility (growth of BLA with antibiotic) [9]

[H]/N=C(/N)N[C@H]1[C@H](O)[C@@H](O)[C@H](O[C@@H]2O[C@@H](C)[C@](O)(C=O)[C@H]2O[C@@H]2O[C@@H](CO)[C@H](O)[C@@H](O)[C@@H]2NC)[C@@H](N/C(N)=N\[H])[C@@H]1O [Streptomycin]
+++: Antibiotic susceptibility (growth of BBL with antibiotic) [3] | Antibiotic susceptibility (growth of BBB2 with antibiotic) [11]
−: Antibiotic susceptibility (growth of BLB with antibiotic) [1] | Antibiotic susceptibility (growth of BLD with antibiotic) [7] | Antibiotic susceptibility (growth of BLC with antibiotic) [8] | Antibiotic susceptibility (growth of BLA with antibiotic) [9]

CN(C)[C@@H]1C(=O)C(C(N)=O)=C(O)[C@@]2(O)C(=O)C3=C(O)c4c(O)cccc4[C@@](C)(O)[C@H]3C[C@@H]12 [Tetracyclin, tetracycline]
−: Antibiotic susceptibility (growth of BLB with antibiotic) [1] | Antibiotic susceptibility (growth of BBC with antibiotic) [2] | Antibiotic susceptibility (growth of BBL with antibiotic) [3] | Antibiotic susceptibility (growth of BSS with antibiotic) [4] | Antibiotic susceptibility (growth of BBC2 with antibiotic) [5] | Antibiotic susceptibility (growth of BBA with antibiotic) [6] | Antibiotic susceptibility (growth of BLD with antibiotic) [7] | Antibiotic susceptibility (growth of BLC with antibiotic) [8] | Antibiotic susceptibility (growth of BLA with antibiotic) [9]

gentamycin
−: Antibiotic susceptibility (growth of BLB with antibiotic) [1] | Antibiotic susceptibility (growth of BLD with antibiotic) [7] | Antibiotic susceptibility (growth of BLC with antibiotic) [8] | Antibiotic susceptibility (growth of BLA with antibiotic) [9]
+++: Antibiotic susceptibility (growth of BBC with antibiotic) [2] | Antibiotic susceptibility (growth of BBL with antibiotic) [3] | Antibiotic susceptibility (growth of BBC2 with antibiotic) [5] | Antibiotic susceptibility (growth of BBA with antibiotic) [6]

Reference: patent publication US20190070229A1, “Composition comprising a lactic acid bacteria for preventing and treating vaginosis and the use thereof” (HAUDONGCHUN CO., LTD, priority 2016, published 2019)
